Results as given in US11813306B2, “Cyclic tetramer compounds as proprotein convertase subtilisin/kexin type 9 (PCSK9) inhibitors for the treatment of metabolic disorders” (NOVARTIS AG, priority 2018, dated 2023).
Where two headings read alike, the source gives them in different places.

What was measured:
[1] = DCM
human PCSK9 = human PCSK9 (Homo sapiens, UniProt Q8NBP7); test: PCSK9 ligand binding assay (TR-FRET): interference with binding of human PCSK9 to human LDLR; conditions: for IC50: Human PCSK9 Alexa Fluor 647 / Human LDLR extracellular domain-Europium Kryptate; for Max % inhibition: efficacy (Amax), 100% = 1 uM unlabeled human PCSK9, 0% = DMSO
human PCSK9, sequence (Q8NBP7 153-692): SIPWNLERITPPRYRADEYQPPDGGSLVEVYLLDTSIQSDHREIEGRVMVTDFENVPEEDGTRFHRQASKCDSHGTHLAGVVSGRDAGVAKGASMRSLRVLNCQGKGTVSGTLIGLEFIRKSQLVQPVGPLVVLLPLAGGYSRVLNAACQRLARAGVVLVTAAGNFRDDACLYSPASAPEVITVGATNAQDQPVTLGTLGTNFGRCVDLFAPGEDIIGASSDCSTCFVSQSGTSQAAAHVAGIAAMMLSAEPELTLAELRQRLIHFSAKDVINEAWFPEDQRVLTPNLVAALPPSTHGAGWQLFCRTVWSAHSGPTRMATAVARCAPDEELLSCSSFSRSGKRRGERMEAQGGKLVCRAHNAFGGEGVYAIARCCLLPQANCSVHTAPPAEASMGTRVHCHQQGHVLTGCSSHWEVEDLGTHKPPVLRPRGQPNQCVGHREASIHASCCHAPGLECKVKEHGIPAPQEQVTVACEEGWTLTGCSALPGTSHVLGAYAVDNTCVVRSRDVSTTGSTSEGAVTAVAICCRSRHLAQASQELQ
human PCSK9, sequence (Q8NBP7 31-152 partner limits assumed): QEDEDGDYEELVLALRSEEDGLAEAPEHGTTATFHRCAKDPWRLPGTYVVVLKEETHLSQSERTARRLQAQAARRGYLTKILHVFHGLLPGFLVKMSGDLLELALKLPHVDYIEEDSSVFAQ
Outline: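 Read-out was TR-FRET ratio (665 nm over 615 nm, 330 nm excitation) between Alexa Fluor 647-human PCSK9 (16 nM added) and Europium Kryptate-human LDLR ectodomain (4 nM added). Compound and PCSK9 were mixed 30 min before LDLR, then incubated 2 h. Inhibition was normalised to DMSO and unlabelled-PCSK9 controls, giving IC50 and Amax.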

Structure (SMILES) | IC50 (human PCSK9) [nM] | Max % inhibition (human PCSK9) [%] | other results
C[C@H]1C(=O)N[C@@H](CO)C(=O)N(C)[C@@]2(Cc3ccc(Cl)cc3)CCCN(C2)C(=O)[C@H](Cc2cccc[n+]2[O-])CC(=O)N1Cc1ccc(Cl)cc1Oc1ccc(-c2cnc(CN(C)C)n2C)cc1 |  |  | ring closure, yield of all isomers ([1]; from C[C@H](NCc1ccc(Cl)cc1Oc1ccc(-c2cnc(CN(C)C)n2C)cc1)C(=O)N[C@@H](CO)C(=O)N(C)[C@@]1(Cc2ccc(Cl)cc2)CCCN(C(=O)[C@@H](CC(=O)O)Cc2cccc[n+]2[O-])C1, amide bond, HATU, 0.83 mM, 48.0 °C, 4.0 h): 100%
COC[C@@H]1NC(=O)[C@H](C)N(Cc2c(F)cc(Cl)cc2Oc2ccc(-c3cnc(CN(C)C)n3C)cc2)C(=O)C[C@@H](Cc2cccc(C)n2)C(=O)N2CCC[C@@](Cc3ccc(Cl)cc3)(C2)N(C)C1=O [Compound 13, (3R,7S,10S,13R)-6-(4-chloro-2-(4-(2-((dimethylamino)methyl)-1-methyl-1H-imidazol-5-yl)phenoxy)-6-fluorobenzyl)-13-(4-chlorobenzyl)-10-(methoxymethyl)-7,12-dimethyl-3-((6-methylpyridin-2-yl)methyl)-1,6,9,12-tetraazabicyclo[11.3.1]heptadecane-2,5,8,11-tetraone] | 0.549 | 112.1 | ring closure, yield of all isomers ([1]; from COC[C@H](NC(=O)[C@H](C)NCc1c(F)cc(Cl)cc1Oc1ccc(-c2cnc(CN(C)C)n2C)cc1)C(=O)N(C)[C@@]1(Cc2ccc(Cl)cc2)CCCN(C(=O)[C@@H](CC(=O)O)Cc2cccc(C)n2)C1, amide bond, HATU/HOAt/2,6-lutidine, 1.59 mM, 48.0 °C, 16.0 h): 33%
C[C@H]1C(=O)N[C@@H](CO)C(=O)N[C@@]2(Cc3ccc(Cl)cc3)CCCN(C2)C(=O)[C@H](Cc2ccccc2)NC(=O)N1Cc1ccc(Cl)cc1Oc1ccc(-c2cnc(CN(C)C)n2C)cc1.Cl [Compound 60, (3S,7S,10S,13R)-3-benzyl-6-(4-chloro-2-(4-(2-((dimethylamino)methyl)-1-methyl-1H-imidazol-5-yl)phenoxy)benzyl)-13-(4-chlorobenzyl)-10-(hydroxymethyl)-7-methyl-1,4,6,9,12-pentaaza-bicyclo[11.3.1]-heptadecane-2,5,8,11-tetraone hydrochloride] | 0.476 | 106.6 | ring closure, yield of all isomers ([1]; from C[C@@H](C(=O)N[C@@H](CO)C(=O)N[C@@]1(Cc2ccc(Cl)cc2)CCCNC1)N(Cc1ccc(Cl)cc1Oc1ccc(-c2cnc(CN(C)C)n2C)cc1)C(=O)N[C@@H](Cc1ccccc1)C(=O)O, amide bond, HATU/HOAt/2,6-lutidine, 1.0 mM, 25.0 °C, 2.5 h): 55%
C[C@H]1C(=O)N[C@@H](CO)C(=O)N[C@@]2(Cc3ccc(Cl)cc3)CCCN(C2)C(=O)[C@H](Cc2ccccc2)OC(=O)N1Cc1ccc(Cl)cc1Oc1ccc(-c2cnc(CN(C)C)n2C)cc1.Cl [Compound 78, (3S,7S,10S,13R)-3-benzyl-6-(4-chloro-2-(4-(2-((dimethylamino)methyl)-1-methyl-1H-imidazol-5-yl)phenoxy)benzyl)-13-(4-chlorobenzyl)-10-(hydroxymethyl)-7-methyl-4-oxa-1,6,9,12-tetraazabicyclo[11.3.1]heptadecane-2,5,8,11-tetraone hydrochloride] | 0.859 | 99.2 | ring closure, yield of all isomers ([1]; from C[C@@H](C(=O)N[C@@H](CO)C(=O)N[C@@]1(Cc2ccc(Cl)cc2)CCCNC1)N(Cc1ccc(Cl)cc1Oc1ccc(-c2cnc(CN(C)C)n2C)cc1)C(=O)O[C@@H](Cc1ccccc1)C(=O)O, amide bond, HATU/HOAt, 2,6-lutidine, 1.0 mM, 25.0 °C, 2.25 h, 2 steps): 38%
C[C@H]1C(=O)N[C@@H](CO)C(=O)N(C)[C@H](Cc2ccc(Cl)cc2)CN(C)C(=O)[C@H]([C@H]2CCc3ccccc32)CC(=O)N1Cc1ccc(Cl)cc1Oc1ccc(-c2cnc(CN3CCCC3)n2C)cc1.Cl [Compound 86, (2S,5S,8R,12S)-1-(4-chloro-2-(4-(1-methyl-2-(pyrrolidin-1-ylmethyl)-1H-imidazol-5-yl)phenoxy)-benzyl)-8-(4-chlorobenzyl)-12-((R)-2,3-dihydro-1H-inden-1-yl)-5-(hydroxymethyl)-2,7,10-trimethyl-1,4,7,10-tetraazacyclotetradecane-3,6,11,14-tetraone hydrochloride] | 0.941 | 99.4 | ring closure, yield of all isomers ([1]; from C[C@H](NCc1ccc(Cl)cc1Oc1ccc(-c2cnc(CN3CCCC3)n2C)cc1)C(=O)N[C@@H](COC(C)(C)C)C(=O)N(C)[C@H](Cc1ccc(Cl)cc1)CN(C)C(=O)[C@@H](CC(=O)O)[C@H]1CCc2ccccc21, amide bond, HATU, 1.0 mM, 40.0 °C, 29.0 h, 2 steps): 45%
COC[C@@H]1NC(=O)[C@H](C)N(Cc2ccc(Cl)cc2Oc2ccc(-c3cnc(CN4CCCC4)n3C)cc2)C(=O)C[C@@H]([C@H]2CCc3ccccc32)C(=O)N2CCC[C@@](Cc3ccc(Cl)cc3)(C2)NC1=O.O=C(O)C(F)(F)F [Compound 96, (3S,7S,10S,13R)-6-(4-chloro-2-(4-(1-methyl-2-(pyrrolidin-1-ylmethyl)-1H-imidazol-5-yl)phenoxy)benzyl)-13-(4-chlorobenzyl)-3-((R)-2,3-dihydro-1H-inden-1-yl)-10-(methoxymethyl)-7-methyl-1,6,9,12-tetraazabicyclo[11.3.1]heptadecane-2,5,8,11-tetraone trifluoroacetate] | 2.21 | 96.3 | ring closure, yield of all isomers ([1]; from COC[C@H](NC(=O)[C@H](C)NCc1ccc(Cl)cc1Oc1ccc(-c2cnc(CN3CCCC3)n2C)cc1)C(=O)N[C@@]1(Cc2ccc(Cl)cc2)CCCN(C(=O)[C@@H](CC(=O)O)[C@H]2CCc3ccccc32)C1, amide bond, HATU/HOAt/2,6-lutidine, 1.04 mM, 40.0 °C, 17.0 h): 46%
COC[C@@H]1NC(=O)[C@H](C)N(Cc2ccc(Cl)cc2Oc2ccc(-c3cnc(CN(C)C)n3C)cc2)CC[C@@H](Cc2ccccc2)C(=O)N2CCC[C@@](Cc3ccc(Cl)cc3)(C2)NC1=O.O=C(O)C(F)(F)F [Compound 120, (3R,7S,10S,13R)-3-benzyl-6-(4-chloro-2-(4-(2-((dimethylamino)methyl)-1-methyl-1H-imidazol-5-yl)phenoxy)benzyl)-13-(4-chlorobenzyl)-10-(methoxymethyl)-7-methyl-1,6,9,12-tetraazabicyclo[11.3.1]heptadecane-2,8,11-trione trifluoroacetate] | 61.2 | 102.4 | ring closure, yield of all isomers ([1]; from COC[C@H](NC(=O)[C@H](C)N)C(=O)N[C@@]1(Cc2ccc(Cl)cc2)CCCN(C(=O)[C@@H](CC=O)Cc2ccccc2)C1, amine bond, NaBH(OAc)3/AcOH, 10.0 mM, 25.0 °C, 2.5 h, 4 steps): 0.6%
CC(C)[C@H]1CC(=O)N(Cc2ccc(Cl)cc2Oc2ccc(-c3cnc(CN(C)C)n3C)cc2)[C@@H](C)C(=O)N[C@@H](CO)C(=O)N[C@@]2(Cc3ccc(Cl)cc3)CCCN(C2)C1=O.Cl [Compound 133, (3R,7S,10S,13R)-6-(4-chloro-2-(4-(2-((dimethylamino)methyl)-1-methyl-1H-imidazol-5-yl)phenoxy)benzyl)-13-(4-chlorobenzyl)-10-(hydroxymethyl)-3-isopropyl-7-methyl-1,6,9,12-tetraazabicyclo[11.3.1]heptadecane-2,5,8,11-tetraone hydrochloride] | 1490 | 76.9 | ring closure, yield of all isomers ([1]; from CC(C)[C@@H](CC(=O)N(Cc1ccc(Cl)cc1Oc1ccc(-c2cnc(CN(C)C)n2C)cc1)[C@@H](C)C(=O)N[C@@H](CO)C(=O)N[C@@]1(Cc2ccc(Cl)cc2)CCCNC1)C(=O)O, amide bond, HATU, 1.0 mM, 25.0 °C, 17.0 h): 59%
COC[C@@H]1NC(=O)[C@H](C)N(Cc2ccc(Cl)cc2Oc2ccc(-c3cnc(CN(C)C)n3C)cc2)C(=O)O[C@@H](Cc2ccccc2)C(=O)N2CCC[C@@](Cc3ccc(Cl)cc3)(C2)NC1=O.Cl [Compound 156, (3S,7S,10S,13R)-3-benzyl-6-(4-chloro-2-(4-(2-((dimethylamino)methyl)-1-methyl-1H-imidazol-5-yl)-phenoxy)benzyl)-13-(4-chlorobenzyl)-10-(methoxymethyl)-7-methyl-4-oxa-1,6,9,12-tetraazabicyclo[11.3.1]heptadecane-2,5,8,11-tetraone hydrochloride] | 9.21 | 100.8 | ring closure, yield of all isomers ([1]; from COC[C@H](NC(=O)[C@H](C)N(Cc1ccc(Cl)cc1Oc1ccc(-c2cnc(CN(C)C)n2C)cc1)C(=O)O[C@@H](Cc1ccccc1)C(=O)O)C(=O)N[C@@]1(Cc2ccc(Cl)cc2)CCCNC1, amide bond, HATU/HOAt, 2,6-lutidine, 0.95 mM, 25.0 °C, 1.5 h): 38%
